Results as given in patent US10294202B2, “Pyrrolidinones as herbicides” (FMC Corporation, priority 2013, dated 2019).

Legend:
[1] = test system: galium; assay: Test D pre-/postemergence herbicide test; format: in vivo, Galium aparine; settings: for Plant response rating: Galium, scale 0 to 100; for Plant response rating, Galium: scale 0 to 100 (0 no effect, 100 complete control)
How it was run: (§1)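 Plants were maintained 7 to 21 days in a controlled environment after treatment and then scored visually against controls (0 no effect, 100 complete control). Seeds in silt loam received preemergence sprays, and 1- to 4-leaf plants received postemergence sprays, both formulated in non-phytotoxic solvent with surfactant.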

[2] = test system: buckwheat, wild; assay: Test D pre-/postemergence herbicide test; format: in vivo, Polygonum convolvulus; settings: for Plant response rating: Buckwheat, Wild, scale 0 to 100; for Plant response rating, Buckwheat, Wild: scale 0 to 100 (0 no effect, 100 complete control)
Excerpt: (§2) Seeds of plant species selected from bluegrass (annual bluegrass, Poa annua), blackgrass (Alopecurus myosuroides), canarygrass (littleseed canarygrass, Phalaris minor), chickweed (common chickweed, Stellaria media), galium (catchweed bedstraw, Galium aparine), bromegrass, downy (downy bromegrass, Bromus tectorum), field poppy (Papaver rhoeas), field violet (Viola arvensis), foxtail, green (green foxtail, Setaria viridis), deadnettle (henbit deadnettle, Lamium amplexicaule), ryegrass, Italian (Italian ryegrass, Lolium multiflorum), kochia (Kochia scoparia), lambsquarters (Chenopodium album), oilseed rape (Brassica napus), pigweed (Amaranthus retroflexus), chamomile (scentless chamomile, Matricaria inodora), Russian thistle (Salsola kali), speedwell (bird's-eye speedwell, Veronica persica), barley, spring (spring barley, Hordeum vulgare), wheat, spring (spring wheat, Triticum aestivum), buckwheat, wild (wild buckwheat, Polygonum convolvulus), mustard, wild (wild mustard, Sinapis arvensis), oat, wild (wild oat, Avena fatua), radish, wild (wild radish, Raphanus raphanistrum), […]), barley, winter (winter barley, Hordeum vulgare), and wheat, winter (winter wheat, Triticum aestivum) were planted into a silt loam soil and treated preemergence with test chemicals formulated in a non-phytotoxic solvent mixture which included a surfactant. At the same time, these species were planted in pots containing Redi-Earth® planting medium (Scotts Company, 14111 Scottslawn Road, Marysville, Ohio 43041) comprising spaghnum peat moss, vermiculite, wetting agent and starter nutrients and treated with postemergence applications of the test chemicals formulated in the same manner. Plants ranged in height from 2 to 18 cm (1- to 4-leaf stage). Treated plants and controls were maintained in a controlled growth environment for 7 to 21 days after which time all species were compared to controls and visually evaluated. Plant response ratings, summarized in Table D, are based on a scale of 0 to 100 where 0 is no effect and 100 is complete control. A dash (-) response means no test result.

[3] = test system: oat, wild; assay: Test D pre-/postemergence herbicide test; format: in vivo, Avena fatua; settings: for Plant response rating: Postemergence, Oat, Wild, scale 0 to 100; for Plant response rating, Oat, Wild: Preemergence, scale 0 to 100 (0 no effect, 100 complete control)
How it was run: as §1

[4] = test system: windgrass; assay: Test D pre-/postemergence herbicide test; format: in vivo, Apera spica-venti; settings: for Plant response rating: Postemergence, Windgrass, scale 0 to 100; for Plant response rating, Windgrass: Preemergence, scale 0 to 100 (0 no effect, 100 complete control)
Excerpt: as §2

[5] = test system: waterhemp; assay: Test E preemergence herbicide test; format: in vivo, Amaranthus rudis; parameters: key: 0 = no effect, 100 = complete control
Excerpt: (§3) Seeds of plant species selected from corn (Zea mays), soybean (Glycine max), velvetleaf (Abutilon theophrasti), lambsquarters (Chenopodium album), wild poinsettia (Euphorbia heterophylla), pigweed, palmer (palmer pigweed, Amaranthus palmeri), waterhemp (common waterhemp, Amaranthus rudis), surinam grass (Brachiaria decumbens), crabgrass, large (large crabgrass, Digitaria sanguinalis), crabgrass, Brazil (Brazilian crabgrass, Digitaria horizontalis), panicum, fall (fall panicum, Panicum dichotomiflorum), foxtail, giant (giant foxtail, Setaria faberii), foxtail, green (green foxtail, Setaria viridis), goosegrass (Eleusine indica), johnsongrass (Sorghum halepense), ragweed (common ragweed, Ambrosia elatior), barnyardgrass (Echinochloa crus-galli), sandbur (southern sandbur, Cenchrus echinatus), arrowleaf […] rhombifolia), ryegrass, Italian (Italian ryegrass, Lolium multiflorum), dayflower, VA (Virginia dayflower, Commelina virginica), field bindweed (Convolvulus arvensis), morningglory (Ipomoea coccinea), nightshade (eastern black nightshade, Solanum ptycanthum), kochia (Kochia scoparia), nutsedge, yellow (yellow nutsedge, Cyperus esculentus), cocklebur (common cocklebur, Xanthium strumarium), smartweed (ladysthumb smartweed, Polygonum Persicaria) and beggarticks (hairy beggarticks, Bidens pilosa), were planted into a silt loam soil and treated preemergence with test chemicals formulated in a non-phytotoxic solvent mixture which included a surfactant. Treated plants and controls were maintained in a greenhouse for 21 days, after which time all species were compared to controls and visually evaluated. Plant response ratings, summarized in Table E, are based on a scale of 0 to 100 where 0 is no effect and 100 is complete control. A dash (-) response means no test result.

[6] = test system: crabgrass, large; assay: Test E preemergence herbicide test; format: in vivo, Digitaria sanguinalis; parameters: key: 0 = no effect, 100 = complete control
Excerpt: as §3

[7] = test system: foxtail, green; assay: Test E preemergence herbicide test; format: in vivo, Setaria viridis; parameters: key: 0 = no effect, 100 = complete control
Excerpt: as §3

[8] = test system: ragweed; assay: Test E preemergence herbicide test; format: in vivo, Ambrosia elatior; parameters: key: 0 = no effect, 100 = complete control
Excerpt: as §3

[9] = test system: barnyardgrass; assay: Test E preemergence herbicide test; format: in vivo, Echinochloa crus-galli; parameters: key: 0 = no effect, 100 = complete control
Excerpt: as §3

[10] = test system: kochia; assay: Test E preemergence herbicide test; format: in vivo, Kochia scoparia; parameters: key: 0 = no effect, 100 = complete control
Excerpt: as §3

## O=C1NCC(c2ccc(C(F)(F)F)cc2)C1C(=O)Nc1cccc(F)c1F (stereo not drawn) [Compound 80, N-(2,3-difluorophenyl)-2-oxo-4-[4-(trifluoromethyl)phenyl]-3-pyrrolidinecarboxamide]
[1]; Postemergence, 31 g ai/ha
  Plant response rating: 20
[1]; Postemergence, 62 g ai/ha
  Plant response rating: 45
[1]; Postemergence, 125 g ai/ha
  Plant response rating: 55
[1]; Postemergence, 250 g ai/ha
  Plant response rating: 60
[1]; Preemergence, 62 g ai/ha
  Plant response rating, Galium: 45
[1]; Preemergence, 31 g ai/ha
  Plant response rating, Galium: 0
[1]; Preemergence, 125 g ai/ha
  Plant response rating: 65
[1]; Preemergence, 250 g ai/ha
  Plant response rating: 75
[2]; Postemergence, 31 g ai/ha
  Plant response rating: 0
[2]; Postemergence, 62 g ai/ha
  Plant response rating: 10
[2]; Postemergence, 125 g ai/ha
  Plant response rating: 0
[2]; Postemergence, 250 g ai/ha
  Plant response rating: 0
[2]; Preemergence, 62 g ai/ha
  Plant response rating, Buckwheat, Wild: 0
[2]; Preemergence, 31 g ai/ha
  Plant response rating, Buckwheat, Wild: 0
[2]; Preemergence, 125 g ai/ha
  Plant response rating: 5
[2]; Preemergence, 250 g ai/ha
  Plant response rating: 15
[3]; 31 g ai/ha
  Plant response rating: 10
  Plant response rating, Oat, Wild: 0
[3]; 62 g ai/ha
  Plant response rating: 10
  Plant response rating, Oat, Wild: 5
[3]; 125 g ai/ha
  Plant response rating: 5
  Plant response rating, Oat, Wild: 10
[3]; 250 g ai/ha
  Plant response rating: 10
  Plant response rating, Oat, Wild: 20
[4]; 31 g ai/ha
  Plant response rating: 0
  Plant response rating, Windgrass: 5
[4]; 62 g ai/ha
  Plant response rating: 10
  Plant response rating, Windgrass: 20
[4]; 125 g ai/ha
  Plant response rating: 10
  Plant response rating, Windgrass: 75
[4]; 250 g ai/ha
  Plant response rating: 25
  Plant response rating, Windgrass: 90
[5]; 16 g ai/ha
  Plant response rating, Waterhemp: 0
[5]; 31 g ai/ha
  Plant response rating, Waterhemp: 20
[5]; 62 g ai/ha
  Plant response rating, Waterhemp: 30
[5]; 125 g ai/ha
  Plant response rating, Waterhemp: 50
[5]; 250 g ai/ha
  Plant response rating, Waterhemp: 60
[6]; 16 g ai/ha
  Plant response rating, Crabgrass, Large: 50
[6]; 31 g ai/ha
  Plant response rating, Crabgrass, Large: 90
[6]; 62 g ai/ha
  Plant response rating, Crabgrass, Large: 95
[6]; 125 g ai/ha
  Plant response rating, Crabgrass, Large: 95
[6]; 250 g ai/ha
  Plant response rating, Crabgrass, Large: 95
[7]; 16 g ai/ha
  Plant response rating, Foxtail, Green: 50
[7]; 31 g ai/ha
  Plant response rating, Foxtail, Green: 60
[7]; 62 g ai/ha
  Plant response rating, Foxtail, Green: 70
[7]; 125 g ai/ha
  Plant response rating, Foxtail, Green: 80
[7]; 250 g ai/ha
  Plant response rating, Foxtail, Green: 90
[8]; 16 g ai/ha
  Plant response rating, Ragweed: 0
[8]; 31 g ai/ha
  Plant response rating, Ragweed: 0
[8]; 62 g ai/ha
  Plant response rating, Ragweed: 0
[8]; 125 g ai/ha
  Plant response rating, Ragweed: 0
[8]; 250 g ai/ha
  Plant response rating, Ragweed: 20
[9]; 16 g ai/ha
  Plant response rating, Barnyardgrass: 0
[9]; 31 g ai/ha
  Plant response rating, Barnyardgrass: 20
[9]; 62 g ai/ha
  Plant response rating, Barnyardgrass: 50
[9]; 125 g ai/ha
  Plant response rating, Barnyardgrass: 75
[9]; 250 g ai/ha
  Plant response rating, Barnyardgrass: 80
[10]; 31 g ai/ha
  Plant response rating, Kochia: 60
[10]; 62 g ai/ha
  Plant response rating, Kochia: 60
[10]; 125 g ai/ha
  Plant response rating, Kochia: 80
[10]; 250 g ai/ha
  Plant response rating, Kochia: 90

## O=C1NCC(c2ccc(OC(F)F)cc2)C1C(=O)Nc1cccc(F)c1F (racemic) [Compound 350]
[5]; 31 g ai/ha
  Plant response rating, Waterhemp: 0
[5]; 62 g ai/ha
  Plant response rating, Waterhemp: 0
[5]; 125 g ai/ha
  Plant response rating, Waterhemp: 0
[5]; 250 g ai/ha
  Plant response rating, Waterhemp: 35
[6]; 31 g ai/ha
  Plant response rating, Crabgrass, Large: 50
[6]; 62 g ai/ha
  Plant response rating, Crabgrass, Large: 70
[6]; 125 g ai/ha
  Plant response rating, Crabgrass, Large: 98
[6]; 250 g ai/ha
  Plant response rating, Crabgrass, Large: 98
[7]; 31 g ai/ha
  Plant response rating, Foxtail, Green: 20
[7]; 62 g ai/ha
  Plant response rating, Foxtail, Green: 35
[7]; 125 g ai/ha
  Plant response rating, Foxtail, Green: 80
[7]; 250 g ai/ha
  Plant response rating, Foxtail, Green: 85
[8]; 31 g ai/ha
  Plant response rating, Ragweed: 0
[8]; 62 g ai/ha
  Plant response rating, Ragweed: 0
[8]; 125 g ai/ha
  Plant response rating, Ragweed: 60
[8]; 250 g ai/ha
  Plant response rating, Ragweed: 65
[9]; 31 g ai/ha
  Plant response rating, Barnyardgrass: 15
[9]; 62 g ai/ha
  Plant response rating, Barnyardgrass: 40
[9]; 125 g ai/ha
  Plant response rating, Barnyardgrass: 60
[9]; 250 g ai/ha
  Plant response rating, Barnyardgrass: 98
[10]; 31 g ai/ha
  Plant response rating, Kochia: 0
[10]; 62 g ai/ha
  Plant response rating, Kochia: 40
[10]; 125 g ai/ha
  Plant response rating, Kochia: 75
[10]; 250 g ai/ha
  Plant response rating, Kochia: 90

## O=C1NCC(c2ccc(Cl)c(Cl)c2)C1C(=O)Nc1ccccc1F (racemic) [Compound 14]
[5]; 16 g ai/ha
  Plant response rating, Waterhemp: 0
[5]; 31 g ai/ha
  Plant response rating, Waterhemp: 0
[5]; 62 g ai/ha
  Plant response rating, Waterhemp: 0
[5]; 125 g ai/ha
  Plant response rating, Waterhemp: 0
[5]; 250 g ai/ha
  Plant response rating, Waterhemp: 0
[6]; 16 g ai/ha
  Plant response rating, Crabgrass, Large: 0
[6]; 62 g ai/ha
  Plant response rating, Crabgrass, Large: 25
[6]; 125 g ai/ha
  Plant response rating, Crabgrass, Large: 90
[6]; 250 g ai/ha
  Plant response rating, Crabgrass, Large: 90
[7]; 16 g ai/ha
  Plant response rating, Foxtail, Green: 0
[7]; 31 g ai/ha
  Plant response rating, Foxtail, Green: 0
[7]; 62 g ai/ha
  Plant response rating, Foxtail, Green: 0
[7]; 125 g ai/ha
  Plant response rating, Foxtail, Green: 10
[7]; 250 g ai/ha
  Plant response rating, Foxtail, Green: 70
[8]; 16 g ai/ha
  Plant response rating, Ragweed: 0
[8]; 31 g ai/ha
  Plant response rating, Ragweed: 0
[8]; 62 g ai/ha
  Plant response rating, Ragweed: 0
[8]; 125 g ai/ha
  Plant response rating, Ragweed: 0
[8]; 250 g ai/ha
  Plant response rating, Ragweed: 0
[9]; 16 g ai/ha
  Plant response rating, Barnyardgrass: 0
[9]; 31 g ai/ha
  Plant response rating, Barnyardgrass: 0
[9]; 62 g ai/ha
  Plant response rating, Barnyardgrass: 0
[9]; 125 g ai/ha
  Plant response rating, Barnyardgrass: 40
[9]; 250 g ai/ha
  Plant response rating, Barnyardgrass: 75
[10]; 16 g ai/ha
  Plant response rating, Kochia: 0
[10]; 31 g ai/ha
  Plant response rating, Kochia: 0
[10]; 62 g ai/ha
  Plant response rating, Kochia: 0
[10]; 125 g ai/ha
  Plant response rating, Kochia: 0
[10]; 250 g ai/ha
  Plant response rating, Kochia: 0
